The values that follow are results of earlier work, collected in patent publication US20110288064A1, “METHODS FOR TREATING DISORDERS ASSOCIATED WITH […] IN A MAMMAL” (priority 2005, published 2011).

For series [1] the following is noted: hoFH patients, ezetimibe 10 mg/day added to maximal statin regimen (atorvastatin or simvastatin 80 mg/day).
The conditions of series [2]: clinical studies.
For series [3] the following is noted: animal model for homozygous FH, for example at 25 mg/day.
For series [4] the following is noted: patients, 25 mg/day monotherapy.

“Also recorded” adds a separate entry of the source. Like-named read-outs stand apart in the source and are kept apart here.

As to `O=C1[C@H](CC[C@H](O)c2ccc(F)cc2)[C@@H](c2ccc(O)cc2)N1c1ccc(F)cc1` [ezetimibe], in series [1], the “total reduction of LDL-C levels” value is given as 27%. Take `Cc1cc(C)c2c3ccccc3n(Cc3ccc([C@@H](C(=O)N[C@H](CO)c4ccccc4)C4CCCC4)cc3)c2n1` [implitapide, (2S)-2-cyclopentyl-2-[4-[(2,4-dimethyl-9H-pyrido[2,3-b]indol-9-yl)methyl]phenyl]-N-[(1S)-2-hydroxy-1-phenylethyl]ethanamide]: the therapeutic efficacy entry in series [2] (80 mg/day or greater) is listed as “therapeutically effective”. Moreover, the adverse events entry in series [2] (80 mg/day or greater (80 mg/day, 160 mg/day)) was “gastrointestinal disturbances, abnormalities in liver function, and hepatic steatosis; also recorded: gastrointestinal disorders, abnormalities in liver function and/or hepatic steatosis”.

For `O=C(NC1CCN(CCCCC2(C(=O)NCC(F)(F)F)c3ccccc3-c3ccccc32)CC1)c1ccccc1-c1ccc(C(F)(F)F)cc1` [BMS-201038, N-(2,2,2-Trifluorethyl)-9-[4-[4-[[[4′-(trifluoromethyl)[1,1′biphenyl]-2-Yl]carbonyl]amino]-1-piperidinyl]butyl]9H-fluorene-9-carboxamide], in series [3], the plasma cholesterol levels result was “effectively reduced plasma cholesterol levels in a dose dependent manner”. Also, the adverse events entry in series [4] was “gastrointestinal disturbances, abnormalities in liver function, and hepatic steatosis; also recorded: gastrointestinal disorders, abnormalities in liver function and/or hepatic steatosis”.
